Reference: patent US9950983B2, “Tricyclic compounds and process for preparation thereof” (Council of Scientific and Industrial Research, priority 2014, dated 2018)

Assays:
[1] = system: Ae. aegypti females mosquitoes; assay: Mosquito repellence bioassay (protection period, time until the first bite); format: in vivo; details: time until first confirmed bite; for Protection period in hrs @dose 0.25 mg/cm^2: dose 0.25 mg/cm^2 on muslin cloth screen over human volunteer's hand; for Protection period in hrs @dose 0.50 mg/cm^2: dose 0.50 mg/cm^2 on muslin cloth screen over human volunteer's hand
Protocol: Protocol Adopted for the Mosquito Repellence Bioassay
Mosquito repellence activity was assessed on the basis of protection period (hr) offered by various analogues of Nootkatone against Mosquito bites. The protection period was measured on the basis of the concept “time until the first bite” pioneered by Granette (Comparison of mosquito repellency test under laboratory and field conditions. Granett, P. Proc Ann Meet NJ Mosq Assoc, 1938, vol. 25, 51,). Repellence tests were carried out against 3-5 days old, blood starved but sucrose fed (0.5M solution), Ae. aegypti females mosquitoes, drawn from well-established laboratory colony maintained at 27±1° C. Temperatureand 70±5% Relative humidity. The light intensity was regulated at 300-500 lux for testing against laboratory, colonized Ae. aegypti, a day biting mosquito. Human volunteer's hand covered with polythene disposable gloves was introduced in the cage containing about 200 hungry mosquitoes. Mosquitoes were allowed to bite on the back of the hand through muslin screen stuck over a small window (2 cm×2 cm) cutout in the polythene bag. Various analogues of Nootkatone were loaded on the muslin cloth screen instead of direct skin application so as to avoid the potential risk involved in the evaluation of natural products of unknown mammalian toxicity. All the test solutions were made in Analar grade Acetone The muslin cloth screen was first treated with the analogue taking two doses @0.25 mg/cm^2 and 0.5 mg/cm^2 and the solvent was evaporated before use. Control muslin screen was treated with solvent alone. After introduction of the hand covered with the polythene glove with the treated muslin screen into the mosquito cage, number of mosquito bites received in subsequent 5 minutes were counted. In the event of no bites in the initial 5 minutes exposure, the test hand was exposed repeatedly after every consecutive ½ hr for 5 minutes test till the time a confirmed bite was received. Number of hours before the receipt of a confirmed bite (Techniques for the evaluation of insect repellents. A critical review (Schreck, C. E, Ann Rev Entomol, 1977, vol 22, 101) represented the protection period offered by the test compound. In control rate of mosquito bite was 10-12 bites/min. Above test were repeated with both male and female human volunteers using different mosquito batches. All the tests were carried out at 27±1° C. temperature between 9.00-17.00 hrs.

[2] = system: Formosan subterranean termite (Coptotermes formosanus); details: Formosan subterranean termites; Zhu et al., J Chem Ecol 2001; cited from earlier work

Compound | Protection period in hrs @dose 0.25 mg/cm^2 [1] [h] | Protection period in hrs @dose 0.50 mg/cm^2 [1] [h] | lowest effective concentration tested [2] [micrograms/g substrate]
C[C@@H]1CC(=O)C=C2C(=O)[C@@H]3[C@@H](C3(C)C)[C@]21C (racemic) [Recemic nardoaristolone B, (1aS,1bR,2R,6aR)-1,1,1b,2-Tetramethyl-1,1a,1b,2,3,6a-hexahydrocyclopropa[a]indene-4,6-dione] | 3.30 ± 0.0708 | 5.63 ± 0.1778 | –
CCC[C@H]1CC(=O)C=C2C[C@@H]3[C@H]([C@@H]21)C3(C)C [1g, (1aR,1bS,6aR)-1,1-Dimethyl-2-propyl-1a,1b,2,3,6,6a-hexahydrocyclo propa[a]inden-4(1H)-one] | 1.8 ± 0.1490 | 1.99 ± 0.1137 | –
CC1(C)CC(=O)C=C2C[C@@H]3[C@H]([C@@H]21)C3(C)C [1h, (1aR,1bR,6aR)-1,1,2,2-Tetramethyl-1a,1b,2,3,6,6a-hexahydro cyclo propa[a]inden-4(1H)-one] | 2.19 ± 0.0716 | 2.38 ± 0.07567 | –
CC1(C)[C@@H]2CC3=CC(=O)CCC3[C@@H]21 (stereo partly drawn) [1c, (1aR,6aR)-1,1-Dimethyl-1a,1b,2,3,6,6a-hexahydrocyclopropa[a]-inden-4(1H)-one] | 3.60 ± 0.0791 | 5.30 ± 0.088 | –
C=C(C)[C@@H]1CCC2=CC(=O)C[C@@H](C)[C@]2(C)C1 [nootkatone] | – | – | 10
CC1=C2C[C@@H]3[C@H](C2CCC1=O)C3(C)C (stereo partly drawn) [1d, (1aR,6aR)-1,1,5-trimethyl-1a,1b,2,3,6,6a hexahydrocyclopropa[a]inden-4(1H)-one] | 5.64 ± 0.1984 | 6.29 ± 0.0844 | –
CC[C@H]1CC(=O)C=C2C[C@@H]3[C@H]([C@@H]21)C3(C)C [1f, (1aR,1bS,6aR)-2-Ethyl-1,1-dimethyl-1a,1b,2,3,6,6a hexahydrocyclo propa[a]inden-4(1H)-one] | 1.53 ± 0.1223 | 3.48 ± 0.1396 | –
C=C(C)[C@@H]1CCC2=CC(=O)C[C@@H](C)[C@]2(C)C1 [Natural nootkatone, nootkatone, reference compound] | 5.58 ± 0.171 | >7 | –
C[C@@H]1CC(=O)C=C2C(=O)[C@H]3[C@H](C3(C)C)[C@]21C [1a, (1aR,1bR,2R,6aS)-1,1,1b,2-Tetramethyl-1,1a,1b,2,3,6a-hexahydro-cyclopropa[a]indene-4,6-dione] | 4.13 ± 0.0626 | 5.35 ± 0.0868 | –
C[C@H]1CC(=O)C=C2C[C@@H]3[C@H]([C@@H]21)C3(C)C [1e, (1aR,1bS,6aR)-1,1,2-Trimethyl-1a,1b,2,3,6,6a-hexahydrocyclo propa[a]inden-4(1H)-one] | 5.22 ± 0.0720 | 6.46 ± 0.1507 | –
CCOC(=O)[C@H]1[C@@H]2C(=O)C3=CC(=O)C[C@@H](C)[C@]3(C)[C@H]12 [1b, Ethyl(1R,1aS,1bR,2R,6aR)-1b,2-dimethyl-4,6-dioxo-1,1a,1b,2,3,4,6,6a-octahydrocyclopropa[a]indene-1-carboxylate] | 1.23 ± 0.040 | 1.40 ± 0.0549 | –
C=C(C)[C@@H]1CCC2=CC(=O)C[C@@H](C)[C@]2(C)C1 (racemic) [Recemic nootkatone, nootkatone, reference compound] | 3.12 ± 0.07 | 5.06 ± 0.06 | –
